In BigSolDB 2.1:

CC1(C)[C@H](C(=O)O)[C@@H]1/C=C(\Cl)C(F)(F)F (racemic)
solubility (mole fraction)
Conditions | 283.15 K | 288.15 K | 293.15 K | 298.15 K | 303.15 K | 308.15 K | 313.15 K | 318.15 K | 323.15 K
in cyclohexane | 0.00261 | 0.00304 | 0.00447 | 0.00592 | 0.00821 | 0.0119 | 0.0175 | 0.0258 | 0.0384
in ethanol | 0.077 | 0.0817 | 0.0944 | 0.106 | 0.121 | 0.143 | 0.168 | 0.195 | 0.228
in ethyl acetate | 0.0818 | 0.0938 | 0.109 | 0.123 | 0.141 | 0.165 | 0.186 | 0.217 | 0.243
in isobutanol | 0.0701 | 0.0843 | 0.099 | 0.116 | 0.13 | 0.147 | 0.168 | 0.2 | 0.233
in methanol | 0.058 | 0.0664 | 0.0722 | 0.0813 | 0.098 | 0.119 | 0.139 | 0.166 | 0.191
in methyl acetate | 0.0727 | 0.0848 | 0.0976 | 0.114 | 0.129 | 0.151 | 0.171 | 0.2 | 0.226
in n-butanol | 0.0748 | 0.0848 | 0.0964 | 0.11 | 0.129 | 0.149 | 0.167 | 0.203 | 0.239
in n-butyl acetate | 0.089 | 0.102 | 0.119 | 0.135 | 0.153 | 0.175 | 0.195 | 0.223 | 0.247
in n-propanol | 0.0753 | 0.0829 | 0.0944 | 0.109 | 0.13 | 0.142 | 0.173 | 0.213 | 0.252
in sec-butanol | 0.0987 | 0.111 | 0.138 | 0.161 | 0.179 | 0.204 | 0.231 | 0.265 | 0.285
in tert-butanol | 0.13 | 0.144 | 0.169 | 0.197 | 0.224 | 0.247 | 0.271 | 0.3 | 0.331
